This test addresses HSD2 (Homo sapiens (Human), UniProt P80365). In words: HSD2 activity: cortisol conversion in human descending colon organoid monolayer cultures (Example 112). Particulars: for pIC50: human descending colon epithelial cultures on transwells, 30 minute pre-incubation, then 40 nM cortisol for four hours, cortisol HTRF assay.

HSD2, sequence (P80365 whole entry): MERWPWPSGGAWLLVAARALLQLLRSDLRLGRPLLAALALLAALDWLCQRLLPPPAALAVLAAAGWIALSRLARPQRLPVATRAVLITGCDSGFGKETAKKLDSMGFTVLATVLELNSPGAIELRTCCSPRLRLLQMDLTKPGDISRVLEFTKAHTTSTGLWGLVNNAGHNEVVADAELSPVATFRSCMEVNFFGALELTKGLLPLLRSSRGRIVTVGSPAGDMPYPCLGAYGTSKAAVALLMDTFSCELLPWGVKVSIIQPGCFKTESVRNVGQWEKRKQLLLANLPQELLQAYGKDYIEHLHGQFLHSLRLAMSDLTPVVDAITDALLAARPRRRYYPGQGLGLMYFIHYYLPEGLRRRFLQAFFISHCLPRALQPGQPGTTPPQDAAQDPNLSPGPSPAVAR
Protocol: Human descending colon epithelial stem cells were cultured as 3D organoids in accordance with Sato et al. Gastroenterology. […] Cultures were differentiated using SBM containing ENRA and 30 nM aldosterone on day 3, and cultures were used for assay on day 6 or 7. Compounds were diluted in DMSO and serial dilutions prepared by titrating in DMSO. Compounds were then diluted into DMEM/F12. Transwell plates containing descending colon cultures were washed twice with DMEM/F12 and compound was added to the apical compartment. Cells were incubated with test compound for 30 minutes at 37° C., 5% CO2 to equilibrate across the cell membrane. A second compound plate was prepared in which the serially diluted compounds in DMSO were diluted into DMEM/F12 containing 40 nM cortisol. Following the 30 minute pre-incubation step, the apical media was aspirated and compounds diluted in DMEM/F12 with 40 nM cortisol were added to the apical side of the transwell. The plate was then incubated for four hours at 37° C., 5% CO2. Cortisol levels were measured using a cortisol HTRF assay kit as described by the manufacturer (Cisbio). Concentration-response curves were then plotted and IC50 (and pIC50) values were determined using least squares non-linear regression.
Inhibition of HSD2 activity as measured by the inhibition of the conversion of cortisone to cortisol.

“2-(3-((1-PEG5K-1H-1,2,3-triazol-4-yl)methoxy)-4-nitrobenzyl) 9-((5-methyl-2-oxo-1,3-dioxol-4-yl)methyl) (2S,4aS,6aS,6bR,8aR,9S,10S,12aS,12bR,14bR)-10-((2,5,8,11-tetraoxatetradecan-14-oyl)oxy)-2,4a,6a,6b,9,12a-hexamethyl-13-oxo-1,2,3,4,4a,5,6,6a,6b,7,8,8a,9,10,11,12,12a,12b,13,14b-icosahydropicene-2,9-dicarboxylate [Compound 605-2]” showed a pIC50 of 6.9.
`CSCC(=O)O[C@H]1CC[C@@]2(C)[C@@H](CC[C@]3(C)[C@@H]2C(=O)C=C2[C@@H]4C[C@@](C)(C(=O)O)CC[C@]4(C)CC[C@]23C)[C@]1(C)C(=O)O` [(2S,4aS,6aS,6bR,8aR,9S,10S,12aS,12bR,14bR)-2,4a,6a,6b,9,12a-hexamethyl-10-{[2-(methylsulfanyl)acetyl]oxy}-13-oxo-1,2,3,4,4a,5,6,6a,6b,7,8,8a,9,10,11,12,12a,12b,13,14b-icosahydropicene-2,9-dicarboxylic acid]: the pIC50 is on record as 5.4.
Still for that read-out and setting: the figure for `CC(=O)O[C@H]1CC[C@@]2(C)[C@@H](CC[C@]3(C)[C@@H]2C(=O)C=C2[C@@H]4C[C@@](C)(C(=O)O)CC[C@]4(C)CC[C@]23C)[C@]1(C)C(=O)O` [(2S,4aS,6aS,6bR,8aR,9S,10S,12aS,12bR,14bR)-10-(acetyloxy)-2,4a,6a,6b,9,12a-hexamethyl-13-oxo-1,2,3,4,4a,5,6,6a,6b,7,8,8a,9,10,11,12,12a,12b,13,14b-icosahydropicene-2,9-dicarboxylic acid] is 5.9; for `C[C@]1(C(=O)O)CC[C@]2(C)CC[C@]3(C)C(=CC(=O)[C@@H]4[C@@]5(C)CC[C@H](OC(=O)c6ccccc6)[C@@](C)(C(=O)O)[C@@H]5CC[C@]43C)[C@@H]2C1` [(2S,4aS,6aS,6bR,8aR,9S,10S,12aS,12bR,14bR)-10-(benzoyloxy)-2,4a,6a,6b,9,12a-hexamethyl-13-oxo-1,2,3,4,4a,5,6,6a,6b,7,8,8a,9,10,11,12,12a,12b,13,14b-icosahydropicene-2,9-dicarboxylic acid] it is 6.6.
The same measure, in the same setting: as for `C[C@]1(C(=O)O)CC[C@]2(C)CC[C@]3(C)C(=CC(=O)[C@@H]4[C@@]5(C)CC[C@H](OC(=O)C6CC6)[C@@](C)(C(=O)O)[C@@H]5CC[C@]43C)[C@@H]2C1` [(2S,4aS,6aS,6bR,8aR,9S,10S,12aS,12bR,14bR)-10-(cyclopropanecarbonyloxy)-2,4a,6a,6b,9,12a-hexamethyl-13-oxo-1,2,3,4,4a,5,6,6a,6b,7,8,8a,9,10,11,12,12a,12b,13,14b-icosahydropicene-2,9-dicarboxylic acid], the figure is 5.8.
Same read-out and setting: the figure for `COCO[C@H]1CC[C@@]2(C)[C@@H](CC[C@]3(C)[C@@H]2C(=O)C=C2[C@@H]4C[C@@](C)(C(=O)O)CC[C@]4(C)CC[C@]23C)[C@]1(C)C(=O)O` [(2S,4aS,6aS,6bR,8aR,9S,10S,12aS,12bR,14bR)-10-(methoxymethoxy)-2,4a,6a,6b,9,12a-hexamethyl-13-oxo-1,2,3,4,4a,5,6,6a,6b,7,8,8a,9,10,11,12,12a,12b,13,14b-icosahydropicene-2,9-dicarboxylic acid] is 5.1; for `CCOC(=O)c1cnn([C@H]2CC[C@@]3(C)[C@@H](CC[C@]4(C)[C@@H]3C(=O)C=C3[C@@H]5C[C@@](C)(C(=O)O)CC[C@]5(C)CC[C@]34C)[C@]2(C)C(=O)O)c1OC` [(2S,4aS,6aS,6bR,8aR,9S,10S,12aS,12bR,14bR)-10-[4-(ethoxycarbonyl)-5-methoxy-1H-pyrazol-1-yl]-2,4a,6a,6b,9,12a-hexamethyl-13-oxo-1,2,3,4,4a,5,6,6a,6b,7,8,8a,9,10,11,12,12a,12b,13,14b-icosahydropicene-2,9-dicarboxylic acid] it is 5.6; for `C[C@]1(C(=O)O)CC[C@]2(C)CC[C@]3(C)C(=CC(=O)[C@@H]4[C@@]5(C)CC[C@H](OC(=O)CO)[C@@](C)(C(=O)O)[C@@H]5CC[C@]43C)[C@@H]2C1` [(2S,4aS,6aS,6bR,8aR,9S,10S,12aS,12bR,14bR)-10-[(2-hydroxyacetyl)oxy]-2,4a,6a,6b,9,12a-hexamethyl-13-oxo-1,2,3,4,4a,5,6,6a,6b,7,8,8a,9,10,11,12,12a,12b,13,14b-icosahydropicene-2,9-dicarboxylic acid] it is 5.9.
Compound `CC1(C)[C@@H](C(=O)O)CC[C@]2(C)[C@H]3C(=O)C=C4[C@@H]5C[C@@](C)(C(=O)O)CC[C@]5(C)CC[C@@]4(C)[C@]3(C)CC[C@@H]12` [(2S,4aS,6aS,6bR,8aS,10S,12aS,12bR,14bR)-2,4a,6a,6b,9,9,12a-heptamethyl-13-oxo-1,2,3,4,4a,5,6,6a,6b,7,8,8a,9,10,11,12,12a,12b,13,14b-icosahydropicene-2,10-dicarboxylic acid] gave a negative-log IC50 (pIC50) of 5.5.
`CC1(C)[C@@H](OCC(=O)O)CC[C@]2(C)[C@H]3C(=O)C=C4[C@@H]5C[C@@](C)(C(=O)O)CC[C@]5(C)CC[C@@]4(C)[C@]3(C)CC[C@@H]12` [Compound 78-2, (2S,4aS,6aS,6bR,8aR,10S,12aS,12bR,14bR)-10-(Carboxymethoxy)-2,4a,6a,6b,9,9,12a-heptamethyl-13-oxo-1,2,3,4,4a,5,6,6a,6b,7,8,8a,9,10,11,12,12a,12b,13,14b-icosahydropicene-2-carboxylic acid] displayed a negative-log IC50 (pIC50) of 5.4.
On the same count and under the same terms, the figure for `Cc1oc(=O)oc1COC(=O)[C@H]1CC[C@]2(C)[C@H]3C(=O)C=C4[C@@H]5C[C@@](C)(C(=O)O)CC[C@]5(C)CC[C@@]4(C)[C@]3(C)CC[C@H]2C1(C)C` [Compound 176-2, (2S,4aS,6aS,6bR,8aS,10S,12aS,12bR,14bR)-2,4a,6a,6b,9,9,12a-Heptamethyl-10-(((5-methyl-2-oxo-1,3-dioxol-4-yl)methoxy)carbonyl)-13-oxo-1,2,3,4,4a,5,6,6a,6b,7,8,8a,9,10,11,12,12a,12b,13,14b-icosahydropicene-2-carboxylic acid] is 6.3; for `CC1OC(=O)OC1COC(=O)[C@H]1CC[C@]2(C)[C@H]3C(=O)C=C4[C@@H]5C[C@@](C)(C(=O)O)CC[C@]5(C)CC[C@@]4(C)[C@]3(C)CC[C@H]2C1(C)C` (stereo partly drawn) [Compound 178-1, (2S,4aS,6aS,6bR,8aS,10S,12aS,12bR,14bR)-2,4a,6a,6b,9,9,12a-Heptamethyl-10-(((5-methyl-2-oxo-1,3-dioxolan-4-yl)methoxy)carbonyl)-13-oxo-1,2,3,4,4a,5,6,6a,6b,7,8,8a,9,10,11,12,12a,12b,13,14b-icosahydropicene-2-carboxylic acid] it is 6.3.
For the compound `COCCOCCOCCOCCC(=O)O[C@H]1CC[C@@]2(C)[C@@H](CC[C@]3(C)[C@@H]2C(=O)C=C2[C@@H]4C[C@@](C)(C(=O)O)CC[C@]4(C)CC[C@]23C)[C@]1(C)C(=O)O` [Compound 190-3, (2S,4aS,6aS,6bR,8aR,9S,10S,12aS,12bR,14bR)-10-((2,5,8,11-tetraoxatetradecan-14-oyl)oxy)-2,4a,6a,6b,9,12a-hexamethyl-13-oxo-1,2,3,4,4a,5,6,6a,6b,7,8,8a,9,10,11,12,12a,12b,13,14b-icosahydropicene-2,9-dicarboxylic acid], the half-inhibitory concentration (IC50) is > 10 µM.
In the case of `CSCC(=O)O[C@H]1CC[C@@]2(C)[C@@H](CC[C@]3(C)[C@@H]2C(=O)C=C2[C@@H]4C[C@@](C)(C(=O)O)CC[C@]4(C)CC[C@]23C)[C@]1(C)C(=O)OCc1oc(=O)oc1C` [Compound 194-10, (2S,4aS,6aS,6bR,8aR,9S,10S,12aS,12bR,14bR)-2,4a,6a,6b,9,12a-Hexamethyl-9-(((5-methyl-2-oxo-1,3-dioxol-4-yl)methoxy)carbonyl)-10-(2-(methylthio)acetoxy)-13-oxo-1,2,3,4,4a,5,6,6a,6b,7,8,8a,9,10,11,12,12a,12b,13,14b-icosahydropicene-2-carboxylic acid], the pIC50 was 8.
The same measure, in the same setting: the figure for `Cc1oc(=O)oc1COC(=O)[C@]1(C)[C@@H](OC(=O)CS(C)(=O)=O)CC[C@@]2(C)[C@H]1CC[C@]1(C)[C@@H]2C(=O)C=C2[C@@H]3C[C@@](C)(C(=O)O)CC[C@]3(C)CC[C@]21C` [Compound 195-2, (2S,4aS,6aS,6bR,8aR,9S,10S,12aS,12bR,14bR)-2,4a,6a,6b,9,12a-Hexamethyl-9-(((5-methyl-2-oxo-1,3-dioxol-4-yl)methoxy)carbonyl)-10-(2-(methylsulfonyl)acetoxy)-13-oxo-1,2,3,4,4a,5,6,6a,6b,7,8,8a,9,10,11,12,12a,12b,13,14b-icosahydropicene-2-carboxylic acid] is 6.3; for `Cc1oc(=O)oc1COC(=O)[C@]1(C)[C@@H](OC(=O)c2ccccc2)CC[C@@]2(C)[C@H]1CC[C@]1(C)[C@@H]2C(=O)C=C2[C@@H]3C[C@@](C)(C(=O)O)CC[C@]3(C)CC[C@]21C` [Compound 197-2, (2S,4aS,6aS,6bR,8aR,9S,10S,12aS,12bR,14bR)-10-(Benzoyloxy)-2,4a,6a,6b,9,12a-hexamethyl-9-(((5-methyl-2-oxo-1,3-dioxol-4-yl)methoxy)carbonyl)-13-oxo-1,2,3,4,4a,5,6,6a,6b,7,8,8a,9,10,11,12,12a,12b,13,14b-icosahydropicene-2-carboxylic acid] it is 7.9; for `Cc1oc(=O)oc1COC(=O)[C@]1(C)[C@@H](OC(=O)C2CC2)CC[C@@]2(C)[C@H]1CC[C@]1(C)[C@@H]2C(=O)C=C2[C@@H]3C[C@@](C)(C(=O)O)CC[C@]3(C)CC[C@]21C` [Compound 198-2, (2S,4aS,6aS,6bR,8aR,9S,10S,12aS,12bR,14bR)-10-((Cyclopropanecarbonyl)oxy)-2,4a,6a,6b,9,12a-hexamethyl-9-(((5-methyl-2-oxo-1,3-dioxol-4-yl)methoxy)carbonyl)-13-oxo-1,2,3,4,4a,5,6,6a,6b,7,8,8a,9,10,11,12,12a,12b,13,14b-icosahydropicene-2-carboxylic acid] it is 7.7.

What is called pIC50 is −log10 of the IC50, conventionally taken in molar units. The low end stands for a high IC50, the high end for a low IC50. The term IC50 denotes the concentration that inhibits the measured activity by half. A lower IC50 goes with inhibition by little substance.

The record behind these values is patent US20240209019A1, “COMPOUNDS AND METHODS FOR TREATING HYPERKALEMIA” (ARDELYX, INC., priority 2019, published 2024).
